Laboratory results published in PubChem BioAssay AID179 (DTP/NCI, 2004).
pEC50, pIC50: −log10 of the molar value. Active and inactive are the calls of the source.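 How the source made its calls: active means compounds giving half or more protection of infected cells from virus-caused growth loss, again on retest; inactive means the rest.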 Where a SMILES comes first, the peptide text is derived from it. The star is where a group is joined. Cbz = O=C(OCc1ccccc1)*; Boc = CC(C)(C)OC(=O)*; tBu = CC(C)(C)*

Tested on: CEM cells HIV-1 protection, formazan growth assay
Assay: NCI AIDS Antiviral Assay
Settings: for pIC50: measured here: growth of uninfected CEM cells
Method in brief: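 Protection of CEM cells against HIV-1 was scored from cell growth (soluble formazan) across five concentrations, with parallel uninfected cells. Lack of protection may reflect toxicity.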

Row | SMILES | pEC50 | pIC50 | outcome
1 | CCOP(=O)(OCC)/C(C#N)=C/c1ccc(Br)cc1 | < 3.56 | 3.79 | –
2 | Cn1c(=O)c2[nH]c(NN)nc2n(C)c1=O | < 3.70 | 3.98 | –
3 | BrCc1cccc(C[P+](c2ccccc2)(c2ccccc2)c2ccccc2)c1 | < 3.70 | 5.93 | –
4 | CCOC(=O)C(NCc1ccc2c(c1)OCO2)(NC(=O)c1ccccc1)C(F)(F)F (stereo not given) | < 3.70 | 4.52 | –
5 | CC(C)(C)NC1=NC(C(F)(F)F)(C(F)(F)F)NC(=O)N1 | < 3.70 | 4.15 | –
6 | CN(Cc1c2ccccc2cc2ccccc12)S(=O)(=O)c1ccc(-c2c3nc(c(-c4ccc(S(=O)(=O)N(C)Cc5c6ccccc6cc6ccccc56)cc4)c4ccc([nH]4)c(-c4ccc(S(=O)(=O)N(C)Cc5c6ccccc6cc6ccccc56)cc4)c4nc(c(-c5ccc(S(=O)(=O)N(C)Cc6c7ccccc7cc7ccccc67)cc5)c5ccc2[nH]5)C=C4)C=C3)cc1 | < 4.00 | < 4.00 | –
7 | COc1c(C)c(O)c2c(c1C)OC(c1ccccc1)CC2=O (stereo not given) | < 4.76 | < 4.76 | –
8 | CC1(c2ccccc2)CC12C(=O)NC(=O)NC2=O (stereo not given) | < 3.97 | < 3.97 | –
9 | CC(OC(C)(C)C)C(NC(=O)C(CCCCNC(=O)OC(C)(C)C)NC(=O)C(Cc1c[nH]c2ccccc12)NC(=O)C(Cc1ccccc1)NC(=O)OCc1ccccc1)C(=O)NC(Cc1ccccc1)C(=O)O (stereo not given) (Cbz-FWK(Boc)T(tBu)F-OH; configuration not given here) | < 3.70 | 4.45 | –
10 | N#C/C(=C\c1ccc(C#N)cc1)C(=O)c1ccccc1 | < 4.01 | 4.38 | –
11 | O=C(O)C(=Cc1ccc([N+](=O)[O-])cc1)C(=O)O | < 2.98 | 3.26 | –
12 | CCOC(=O)c1cc(N/N=C2/CCCNC2=O)c[nH]1 | < 3.70 | 4.38 | –
13 | CC1=NNC(=O)C1C1CC(c2c[nH]c3ccccc23)=NNC1=NCc1ccccc1 (stereo not given) | 5.33 | 4.30 | –
14 | COCN1COCN=C1NC#N | < 3.28 | < 3.28 | –
15 | CNc1nnnn1C1OC(CO)C(O)C1O (stereo not given) | < 2.97 | < 2.97 | –
16 | COc1cc(C)cc2c(-c3c(O)cc(O)c4c3C[C@H](C)N[C@H]4C)cc(-c3cc(-c4c(O)cc(O)c5c4C[C@H](C)N[C@H]5C)c4cc(C)cc(OC)c4c3O)c(O)c12 | 4.85 | 4.02 | –
17 | O=C1C2=C(c3ccccc31)C(c1cccc(Cl)c1)NC(=S)N2 (stereo not given) | < 4.24 | 4.45 | –
18 | c1ccc2c(c1)nnn1c3cnccc3nc21 | < 4.23 | 5.17 | –
19 | Cc1cn(COCC[Se]c2ccccc2)c(=O)[nH]c1=O | 3.73 | < 3.70 | –
20 | CN(OC(=O)CC(=O)c1ccccc1)C(=O)Cc1ccccc1 | < 3.60 | 3.72 | –
21 | Cc1ccccc1OP(=S)(Oc1ccccc1C)Oc1ccccc1C | < 3.70 | 4.45 | –
22 | O=C(Nc1ccccc1C(=O)Nc1nccs1)c1ccccc1 | < 3.70 | 4.49 | –
23 | COc1cc(CN=c2nc(N(C)C)ss2)cc(OC)c1OC | < 4.00 | 5.16 | –
24 | CN(CCc1ccccn1)C(=S)N/N=C(\c1ccccc1)c1ccccn1 | < 6.70 | 7.88 | –
25 | COc1ccc2nc3cc([N+](=O)[O-])ccc3c(NNc3ccc(Cl)cc3)c2c1 | < 3.70 | 4.48 | –
26 | O=C1c2ccccc2-n2nnnc2C2CSCN12 (stereo not given) | < 3.70 | < 3.70 | –

Row | SMILES | pEC50 | pIC50 | outcome
27 | Cc1ccc(S(=O)(=O)SC(S(=O)(=O)c2ccc(C)cc2)S(=O)(=O)c2ccc(C)cc2)cc1 | < 3.45 | 3.83 | –
28 | CC1=NN(C(=O)c2ccccc2O)C(=O)C1N=Nc1ccccc1C(=O)O (stereo not given) | – | – | inactive
29 | Cc1cc2c(cc1C)n1c(N(C)C)[n+]3ccccc3c1c1c3cccc[n+]3c(N(C)C)n21 | < 3.82 | 4.66 | –
30 | COCC(C)(C)N=CN1Cc2cc3ccccc3nc2C1 | < 3.75 | < 3.75 | –
31 | CCOC(CCc1c(C)nc(NC(C)=O)[nH]c1=O)OCC | < 3.70 | < 3.70 | –
32 | O=c1[nH]c(=O)n(C2OC(CO)C(O)C2O)cc1Oc1ccccc1 (stereo not given) | < 3.70 | < 3.70 | –
33 | COc1ccc(/C(C)=N/NC(=O)CC(=O)N(C(=O)c2ccccc2)c2ccc(C)cc2)cc1 | < 4.79 | < 4.79 | –
34 | COc1cccc(/C=N/[N-]C(=O)c2ccncc2)c1[O-].COc1cccc(/C=N/[N-]C(=O)c2ccncc2)c1[O-].[O]=[U](=[O])([OH2+])[OH2+] | < 3.67 | 5.31 | –
35 | CC(NC1=NCCO1)c1ccco1 (stereo not given) | < 3.70 | < 3.70 | –
36 | COc1cc(C2c3cc4c(cc3OC3(OC)COC(=O)C23)OCO4)cc(OC)c1OC (stereo not given) | < 5.70 | 6.62 | –
37 | CC1(Cl)CC(O)C2(CC1Br)C1(C)OC1C1OC1(Br)C2(C)C (stereo not given) | < 3.70 | 4.82 | –
38 | OC12CCC[N+]1(Cc1ccccc1)CCC2 (stereo not given) | < 3.10 | 3.15 | –
39 | CN(/N=C/c1cccs1)c1ccc(Cl)cc1[N+](=O)[O-] | < 3.70 | 4.22 | –
40 | CO/N=C(\C(=O)[N-][n+]1cnn(CC(=O)O)c1)c1csc(N)n1 | < 3.70 | < 3.70 | –
41 | CC[C@@H]1CC[C@@H]2[C@H](CC[C@]3(C)[C@@H](O[N+](=O)[O-])CC[C@@H]23)[C@H]1C(C)=O | – | – | inactive
42 | O=C(CCCN1CCC2(CC1)CC(=O)N(N1CCOCC1)C2=O)c1ccc(F)cc1 | < 3.70 | < 3.70 | –
43 | CC(C(=O)N1C(=O)N(C(=O)[C@H](C)C(O)c2ccccc2)[C@H](c2ccccc2)[C@H]1c1ccccc1)[C@@H](O)c1ccccc1 (stereo not given in full) | < 3.70 | 4.55 | –
44 | C[C@H]1CC(=O)C2=CCCC3(SCCCS3)[C@@H]2[C@H]1CO | – | – | inactive
45 | CN(CCO)CC(O)Cn1cnc2c1c(=O)n(C)c(=O)n2C (stereo not given) (tested in a mixture with another compound) | < 3.70 | < 3.70 | –
46 | CS(=O)(=O)OCCCSCCSCCCOS(C)(=O)=O | < 3.17 | < 3.17 | –
47 | CCCCCCN(CCCCCC)C(F)(F)C(=O)Nc1ccc(S(=O)(=O)c2ccc(NC(=O)C(F)(F)N(CCCCCC)CCCCCC)cc2)cc1 | < 4.00 | 5.29 | –
48 | CC1CCC2c3c([nH]c4ccccc34)C3C(=O)N(c4ccccc4)C(=O)C3C2C1 (stereo not given) | – | – | inactive
49 | COc1ccc(NC(=O)C(=O)NNC(=O)c2sc(NNC(C)=O)nc2C)c([N+](=O)[O-])c1 | < 4.52 | < 4.52 | –
50 | C=CCc1cc2c(C)cc(=O)oc2c(C)c1OC(C)=O | < 4.72 | < 4.72 | –
51 | NC(Cc1ccc2nc3c4ccccc4c(=O)cc-3oc2c1)C(=O)O (stereo not given) | < 3.70 | 4.46 | –
52 | COc1ccc(-c2cc(-c3ccccc3)n(C3OC(COC(C)=O)C(OC(C)=O)C(OC(C)=O)C3OC(C)=O)c(=S)c2C#N)cc1 (stereo not given) | < 3.78 | 4.49 | –

Row | SMILES | pEC50 | pIC50 | outcome
53 | COC(=O)c1cc(C(=CCN[C@H]2CC[C@@]3(C)[C@@H](CC[C@@H]4[C@@H]3CC[C@]3(C)[C@@H]([C@H](C)CCCC(C)C)CC[C@@H]43)C2)c2cc(Cl)c(OC)c(C(=O)OC)c2)cc(Cl)c1OC | < 4.00 | < 4.00 | –
54 | CN1C(=O)CN(NC(=O)C2=C(O)c3ccc(Br)cc3S(=O)(=O)N2)C1=S | < 3.70 | 4.29 | –
55 | COC(=O)C1(O)CC(=O)CCC1c1ccccc1 (stereo not given) | < 3.45 | < 3.45 | –
56 | COc1ccc(N2C(=O)C(=O)N(c3ccc(N=Nc4ccccc4)cc3)C2=S)cc1 | < 3.70 | 4.93 | –
57 | O=C(O)C1CC=CCC1c1c2ccc(=O)cc-2oc2cc(O)ccc12 (stereo not given) | 5.40 | 3.85 | –
58 | Cc1ccc(N(C(=O)CC(=O)N/N=C/c2ccccc2O)C(=O)c2ccccc2)cc1 | – | – | inactive
59 | O=C1/C(=N\O)C2CCC1C2 (stereo not given) | < 3.44 | < 3.44 | –
60 | CC(=O)[CH-]C(=O)c1ccccc1.CC(=O)[CH-]C(=O)c1ccccc1.CC(=O)[CH-]C(=O)c1ccccc1.[Tl+3] | < 3.86 | 4.31 | –
61 | COc1ccc(OC)c(Cc2c(OC)ccc(OC)c2O)c1O | – | – | inactive
62 | Cc1ccc(C(=O)CC2=Nc3nnc(CCCCCCCc4nnc5n4C(=O)C(CC(=O)c4ccc(C)cc4)=N5)n3C2=O)cc1 | < 5.62 | < 5.62 | –
63 | O=CC12CCCN1CCC2 | < 3.70 | < 3.70 | –
64 | C/C(CCn1[nH]c(=O)ccc1=O)=N\O | < 2.97 | < 2.97 | –
65 | Nc1nccc(NCC2(CO)CC(CCc3ccccc3)C2)n1 (stereo not given) | < 3.70 | 4.98 | –
66 | CCCCCCCCCCCCCCCCOC1N(C2CC(N=[N+]=[N-])C(CO)O2)C(=O)NC(=O)[C@]1(C)Cl (stereo not given in full) | < 3.70 | 4.50 | –
67 | COc1cc2ccc3c4cc(OC)c(OC)cc4c[n+](C)c3c2cc1O | – | – | inactive
68 | C[C@H]1CC(=O)C[C@@H]2CC[C@@H]3[C@H](CC[C@]4(C)C(OC(=O)c5cccc6c(=O)c7ccccc7[nH]c56)CC[C@@H]34)[C@]21C (stereo not given in full) | < 3.70 | 4.65 | –
69 | Cc1ccc(S(=O)(=O)N2CCNCCN(S(=O)(=O)c3ccc(C)cc3)CCNCC2)cc1 | < 3.90 | 4.29 | –
70 | O=C(C=Nc1ccccc1C(=O)[O-])c1cccs1.O=C(C=Nc1ccccc1C(=O)[O-])c1cccs1.[Cu+2] | – | – | inactive
71 | CC(CCc1nc2ccccc2[nH]1)C1CCC2C3C(C[C@H](O)[C@]12C)[C@@]1(C)CC[C@@H](O)C[C@H]1C[C@H]3O (stereo not given in full) | < 4.30 | 5.00 | –
72 | O=C(O)CCCC[P+](c1ccccc1)(c1ccccc1)c1ccccc1 | < 3.70 | < 3.70 | –
73 | CC1CSc2nc3[nH]c(=S)[nH]c3c(=O)n2C1 (stereo not given) | < 3.70 | < 3.70 | –
74 | CCCCCCCCCCC[N+]1(Cc2ccccc2)CC2CCN(Cc3ccccc3)CC2C1 (stereo not given) | < 5.70 | 6.63 | –
75 | O=C(O)CCCc1ccc2c(c1)C(C(=O)O)CC2 (stereo not given) | < 3.70 | < 3.70 | –
76 | COC(=O)c1cc(C(=O)Nc2cc(C(=CCC[C@H]3CC[C@@]4(C)[C@@H](CC[C@@H]5[C@@H]4CC[C@]4(C)[C@@H](C(C)CCCC(C)C)CC[C@@H]54)C3)c3cc(NC(=O)c4ccc(OC)c(C(=O)OC)c4)c(OC)c(C(=O)OC)c3)cc(C(=O)OC)c2OC)ccc1OC (stereo not given in full) | < 4.00 | < 4.00 | –
77 | COc1ccc(C2Oc3c(c(O)cc4c3[C@H](c3ccc(O)cc3O)[C@H](O)C(c3ccc(O)c(O)c3)O4)C[C@@H]2O)cc1O (stereo not given in full) | – | – | inactive
